# Measurements reported in patent US7803966B2, “Cosmetic and pharmaceutical compositions comprising compounds that display retinoid like activities” (Johnson & Johnson Consumer France, S.A.S., priority 2007, dated 2010).
# Assays:
# Assay type in all cases: cell-based
# IL8 [1] = assay: IL8 gene expression in human squamous carcinoma cells (QRT-PCR); conditions: for Effect on IL8 expression (48 h)vs control: vs untreated control
# HB-EGF [2] = assay: HB-EGF gene expression in human squamous carcinoma cells (QRT-PCR); conditions: vs untreated control
# Method: Compound G was tested on Human Squamous Carcinoma Cells for its ability to induce epidermal proliferation factor HB-EGF. For this assay, Human squamous carcinoma cells were seeded in 25 cm^2 flask and cultivated until 80% of cell confluence was reached. Test compounds were added to the culture medium and cells were incubated again 48 hours. At the end of the incubation cells were trypsinized and pelleted. […] was extracted and gene expression was measured with quantitative real time Polymerase Chain Reaction (QRT-PCR) using actin gene expression as internal standard. Variation of gene expression is expressed in percent versus the untreated control. Effect of Compound G on HB-EGF gene expression, assessed by real time QPCR was +187% and +370% vs. control at doses of 10^−6 and 10^−5 M respectively.
# [3] = test system: Ex vivo human skin explant; assay: Cell proliferation (Ki67 staining) in ex vivo human skin explant; conditions: 10^−3 M topical, Control 90, Vehicle 45
# Method: (§1) Ex vivo skin explants were prepared from skin abdominal biopsy after plastic surgery. Skin explants were maintained in culture medium at 37° C. in a water saturated atmosphere for 5 days. Compounds G was diluted in a mixture of propylene glycol (30%) and ethanol (70%) at 10^-3 M and topically applied on the explant surface. After 48 hours, half of the explants were taken and epidermal mRNA was extracted and expression of HB-EGF and IL8 genes was measured by Quantitative real time PCR (QRT-PCR). Explants were also fixed and slices were prepared and mounted on glass slides to be examined. Cell proliferation was also assessed by staining the cells with an antibody directed to the Ki67 protein and then counting the number of positive cell per mm (Table 4).
# IL8 [4] = assay: IL8 gene expression in ex vivo human skin explant (QRT-PCR)
# Method: as §1, with “Compounds G was diluted in a mixture of propylene glycol (30%) and ethanol (70%) at 10^-3 M and topically applied on the explant surface.” left out
# HB-EGF [5] = assay: HB-EGF gene expression in ex vivo human skin explant (QRT-PCR)
# Method: as §1, with “Compounds G was diluted in a mixture of propylene glycol (30%) and ethanol (70%) at 10^-3 M and topically applied on the explant surface.” left out
structure (smiles),measurement,setting,value
O=C(O)COc1ccc(/N=N/c2c(O)ccc3cc(Br)ccc23)cc1 [Compound G],Effect on IL8 expression (48 h)vs control,IL8 [1]; 10^−5 M,44%
same,Effect on IL8 expression (48 h)vs control,IL8 [1]; 10^−6 M,10%
same,IL8 expression induction (in words),"IL8 [1]; ""at this dose"" (10^−6 and 10^−5 M), 48 h",did not significantly induce IL8 expression
same,Effect on HB EGF expression vs control(48 h),HB-EGF [2]; 10^−5 M,370%
same,Effect on HB EGF expression vs control(48 h),"HB-EGF [2]; 10^−5 M, listed as compound G",370%
same,Effect on HB EGF expression vs control(48 h),HB-EGF [2]; 10^−6 M,187%
same,Effect on HB EGF expression vs control(48 h),"HB-EGF [2]; 10^−6 M, listed as compound G",187%
same,Cell proliferation (Ki67 + cells),[3],150 positive cell per mm
same,Effect on IL8 expression (48h)vs vehicle,IL8 [4]; 10^−3 M topical,76%
same,Effect on IL8 expression (48h)vs vehicle,IL8 [4]; 10^−4 M topical,65%
same,Effect on HB EGF expression (48 h) vs vehicle,HB-EGF [5]; 10^−3 M topical,288%
same,Effect on HB EGF expression (48 h) vs vehicle,HB-EGF [5]; 10^−4 M topical,159%
